In patent US20250277187A1, “A METHOD FOR PRODUCING INDUCED STEROIDOGENIC CELLS AND USE THEREOF IN CELL THERAPY” (TECHNISCHE UNIVERSITAET DRESDEN, priority 2021, published 2025):

Tested on: cells infected with the SF1 gene or the SF1+MC2R+MRAP genes
Experiment: ACTH stimulation of hiSCs: cortisol and aldosterone secretion
Assay type: cell-based, human
Conditions: ACTH 0 nM, 10 nM

For “adrenocorticotropic hormone (SYSMEHFRWGKPVGKKRRPVKVYPNGAEDESAEAFPLEF; Corticotropin; UniProt P01189 138-176, looked up) [ACTH, hormone secreted by the anterior pituitary gland, used to stimulate the cells]”, the production/secretion of cortisol (1 uM (FIG. 15B)) was “increasing with administration of increasing ACTH dosage” and the production/secretion of aldosterone (1 uM (FIG. 15C)) was “increasing with administration of increasing ACTH dosage”.
